How the values were obtained:
[1] = target: Adenosine receptor A2b (Homo sapiens) (UniProt P29275); experiment: A2B (h) Eurofins-Cerep binding assay; parameters: ligand concentration 5 nM; settings: filed as antagonist, Compound concentration 10.0 uM
[2] = target: Muscarinic acetylcholine receptor M1 (Homo sapiens) (UniProt P11229); experiment: M1 (h) Eurofins-Cerep binding assay; parameters: ligand concentration 2 nM; settings: filed as antagonist, Compound concentration 10.0 uM
[3] = target: Urotensin-2 receptor (Homo sapiens) (UniProt Q9UKP6); experiment: UT (h) Eurofins-Cerep binding assay; parameters: ligand concentration 0.1 nM; settings: filed as agonist, Compound concentration 10.0 uM
[4] = target: Serine/threonine-protein kinase B-raf (Homo sapiens) (UniProt P15056); settings: Compound concentration 1000.0 nM
Serine/threonine-protein kinase B-raf (Homo sapiens), sequence (P15056 whole entry): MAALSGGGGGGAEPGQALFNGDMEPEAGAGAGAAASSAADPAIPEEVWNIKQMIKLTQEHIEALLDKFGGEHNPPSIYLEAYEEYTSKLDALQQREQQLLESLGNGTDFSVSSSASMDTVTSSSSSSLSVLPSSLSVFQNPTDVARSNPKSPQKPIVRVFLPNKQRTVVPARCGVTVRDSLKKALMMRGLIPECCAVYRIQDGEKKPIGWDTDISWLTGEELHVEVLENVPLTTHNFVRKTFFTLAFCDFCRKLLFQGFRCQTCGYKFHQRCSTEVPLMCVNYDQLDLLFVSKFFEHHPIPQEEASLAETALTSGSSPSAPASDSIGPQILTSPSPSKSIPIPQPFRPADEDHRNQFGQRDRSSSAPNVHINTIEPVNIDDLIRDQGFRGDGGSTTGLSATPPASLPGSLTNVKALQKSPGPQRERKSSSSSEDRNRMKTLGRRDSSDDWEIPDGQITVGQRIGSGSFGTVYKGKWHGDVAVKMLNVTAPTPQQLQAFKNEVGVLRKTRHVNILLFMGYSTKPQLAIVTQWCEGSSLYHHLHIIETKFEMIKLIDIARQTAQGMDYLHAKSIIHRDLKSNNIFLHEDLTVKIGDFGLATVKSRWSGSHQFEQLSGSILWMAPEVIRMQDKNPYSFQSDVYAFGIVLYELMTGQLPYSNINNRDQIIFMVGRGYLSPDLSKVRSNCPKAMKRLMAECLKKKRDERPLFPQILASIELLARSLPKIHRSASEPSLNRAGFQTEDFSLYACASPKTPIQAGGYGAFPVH

[5] = target: Protein-tyrosine kinase 6 (Homo sapiens) (UniProt Q13882); settings: Compound concentration 1000.0 nM
Protein-tyrosine kinase 6 (Homo sapiens), sequence (Q13882 whole entry, looked up): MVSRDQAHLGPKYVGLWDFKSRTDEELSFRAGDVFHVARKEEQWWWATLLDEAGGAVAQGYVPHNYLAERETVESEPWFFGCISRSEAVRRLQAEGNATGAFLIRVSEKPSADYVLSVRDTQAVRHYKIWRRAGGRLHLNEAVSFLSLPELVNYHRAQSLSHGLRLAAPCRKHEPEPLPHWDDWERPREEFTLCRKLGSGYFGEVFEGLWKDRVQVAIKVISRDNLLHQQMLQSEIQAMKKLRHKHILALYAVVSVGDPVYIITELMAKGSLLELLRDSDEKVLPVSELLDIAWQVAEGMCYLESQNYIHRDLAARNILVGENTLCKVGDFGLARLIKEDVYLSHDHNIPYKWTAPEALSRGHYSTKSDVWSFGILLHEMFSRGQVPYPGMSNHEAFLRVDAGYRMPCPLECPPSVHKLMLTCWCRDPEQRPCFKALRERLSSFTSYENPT

[6] = target: Cyclin-dependent kinase 4 (Homo sapiens) (UniProt P11802); settings: Compound concentration 1000.0 nM
Cyclin-dependent kinase 4 (Homo sapiens), sequence (P11802 whole entry): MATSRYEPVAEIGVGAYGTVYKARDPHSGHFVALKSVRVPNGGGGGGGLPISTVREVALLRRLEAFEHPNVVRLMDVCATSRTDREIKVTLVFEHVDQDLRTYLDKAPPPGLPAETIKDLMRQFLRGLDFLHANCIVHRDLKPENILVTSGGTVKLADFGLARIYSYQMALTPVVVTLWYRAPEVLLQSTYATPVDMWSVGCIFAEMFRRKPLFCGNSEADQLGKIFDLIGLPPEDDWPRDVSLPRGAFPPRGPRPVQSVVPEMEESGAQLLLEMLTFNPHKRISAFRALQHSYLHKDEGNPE

[7] = target: Cyclin-dependent kinase-like 1 (Homo sapiens) (UniProt Q00532); settings: Compound concentration 1000.0 nM
Cyclin-dependent kinase-like 1 (Homo sapiens), sequence (Q00532 whole entry): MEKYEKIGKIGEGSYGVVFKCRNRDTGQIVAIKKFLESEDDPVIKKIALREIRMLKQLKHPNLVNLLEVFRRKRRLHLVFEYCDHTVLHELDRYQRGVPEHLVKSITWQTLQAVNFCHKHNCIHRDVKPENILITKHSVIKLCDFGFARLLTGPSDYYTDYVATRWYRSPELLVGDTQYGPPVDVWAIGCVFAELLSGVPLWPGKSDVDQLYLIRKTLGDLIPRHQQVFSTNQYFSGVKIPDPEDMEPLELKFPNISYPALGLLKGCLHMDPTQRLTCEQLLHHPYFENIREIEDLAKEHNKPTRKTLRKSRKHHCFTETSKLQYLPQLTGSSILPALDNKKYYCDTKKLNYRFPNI

[8] = target: Cyclin-dependent kinase-like 2 (Homo sapiens) (UniProt Q92772); settings: Compound concentration 1000.0 nM
[9] = target: Macrophage colony-stimulating factor 1 receptor (Homo sapiens) (UniProt P07333); settings: Compound concentration 1000.0 nM
Macrophage colony-stimulating factor 1 receptor (Homo sapiens), sequence (P07333 whole entry, canonical isoform): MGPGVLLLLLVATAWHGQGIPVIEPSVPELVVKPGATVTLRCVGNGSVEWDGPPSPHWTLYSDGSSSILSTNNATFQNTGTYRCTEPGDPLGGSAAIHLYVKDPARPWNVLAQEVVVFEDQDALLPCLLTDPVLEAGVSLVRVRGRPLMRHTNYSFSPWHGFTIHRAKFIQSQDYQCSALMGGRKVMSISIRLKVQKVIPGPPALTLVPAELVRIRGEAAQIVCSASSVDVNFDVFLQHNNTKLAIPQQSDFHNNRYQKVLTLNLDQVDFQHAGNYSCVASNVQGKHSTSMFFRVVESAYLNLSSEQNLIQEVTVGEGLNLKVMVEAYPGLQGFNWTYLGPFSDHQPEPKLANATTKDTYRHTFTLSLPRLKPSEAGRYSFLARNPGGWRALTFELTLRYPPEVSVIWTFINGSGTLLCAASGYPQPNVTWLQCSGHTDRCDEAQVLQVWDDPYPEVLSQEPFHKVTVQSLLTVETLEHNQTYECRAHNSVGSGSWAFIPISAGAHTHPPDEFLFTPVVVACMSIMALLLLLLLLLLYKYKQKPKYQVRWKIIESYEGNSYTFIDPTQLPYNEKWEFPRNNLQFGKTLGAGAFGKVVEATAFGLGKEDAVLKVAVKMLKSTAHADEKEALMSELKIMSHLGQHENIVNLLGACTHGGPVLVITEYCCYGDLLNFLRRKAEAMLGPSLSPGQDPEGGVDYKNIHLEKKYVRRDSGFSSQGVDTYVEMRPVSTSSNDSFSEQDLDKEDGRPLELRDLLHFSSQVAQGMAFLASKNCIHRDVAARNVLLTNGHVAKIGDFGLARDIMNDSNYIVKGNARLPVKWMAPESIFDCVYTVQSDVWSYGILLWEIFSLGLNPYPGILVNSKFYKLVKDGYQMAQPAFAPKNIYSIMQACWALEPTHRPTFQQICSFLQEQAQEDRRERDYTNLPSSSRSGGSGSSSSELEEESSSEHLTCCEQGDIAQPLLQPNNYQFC

[10] = target: Casein kinase I isoform alpha (Homo sapiens) (UniProt P48729); settings: Compound concentration 1000.0 nM
[11] = target: Dual specificity tyrosine-phosphorylation-regulated kinase 2 (Homo sapiens) (UniProt Q92630); settings: Compound concentration 1000.0 nM
Dual specificity tyrosine-phosphorylation-regulated kinase 2 (Homo sapiens), sequence (Q92630 whole entry): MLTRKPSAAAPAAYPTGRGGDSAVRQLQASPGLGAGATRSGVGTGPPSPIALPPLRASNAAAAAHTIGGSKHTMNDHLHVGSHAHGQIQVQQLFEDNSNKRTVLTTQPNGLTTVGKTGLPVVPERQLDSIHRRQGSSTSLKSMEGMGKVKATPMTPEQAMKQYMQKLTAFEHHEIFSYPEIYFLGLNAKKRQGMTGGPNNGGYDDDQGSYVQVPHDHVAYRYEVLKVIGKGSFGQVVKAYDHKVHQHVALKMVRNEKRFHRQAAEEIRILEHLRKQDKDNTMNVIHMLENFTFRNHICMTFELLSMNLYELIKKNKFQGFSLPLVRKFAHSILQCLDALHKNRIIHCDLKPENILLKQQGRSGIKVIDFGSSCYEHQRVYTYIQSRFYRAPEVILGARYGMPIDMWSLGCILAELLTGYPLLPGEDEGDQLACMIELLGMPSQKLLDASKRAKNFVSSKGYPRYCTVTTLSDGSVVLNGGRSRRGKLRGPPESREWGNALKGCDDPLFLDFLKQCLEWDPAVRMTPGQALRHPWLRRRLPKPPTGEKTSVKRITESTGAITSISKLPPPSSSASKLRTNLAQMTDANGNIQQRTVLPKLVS

[12] = target: Epidermal growth factor receptor (Homo sapiens) (UniProt P00533); settings: Compound concentration 1000.0 nM
[13] = tested on: Epidermal growth factor receptor (Homo sapiens), P00533 [L858R]; settings: Compound concentration 1000.0 nM
[14] = target: Ephrin type-A receptor 2 (Homo sapiens) (UniProt P29317); settings: Compound concentration 1000.0 nM
[15] = target: Mitogen-activated protein kinase 1 (Homo sapiens) (UniProt P28482); settings: Compound concentration 1000.0 nM
[16] = target: Mitogen-activated protein kinase 6 (Homo sapiens) (UniProt Q16659); settings: Compound concentration 1000.0 nM
[17] = target: Interleukin-1 receptor-associated kinase 4 (Homo sapiens) (UniProt Q9NWZ3); settings: Compound concentration 1000.0 nM
[18] = target: Serine/threonine-protein kinase MARK1 (Homo sapiens) (UniProt Q9P0L2); settings: Compound concentration 1000.0 nM
[19] = target: Maternal embryonic leucine zipper kinase (Homo sapiens) (UniProt Q14680); settings: Compound concentration 1000.0 nM
[20] = target: Macrophage-stimulating protein receptor (Homo sapiens) (UniProt Q04912); settings: Compound concentration 1000.0 nM
[21] = target: Serine/threonine-protein kinase 24 (Homo sapiens) (UniProt Q9Y6E0); settings: Compound concentration 1000.0 nM
[22] = target: Cyclin-dependent kinase 16 (Homo sapiens) (UniProt Q00536); settings: Compound concentration 1000.0 nM
[23] = target: Cyclin-dependent kinase 14 (Homo sapiens) (UniProt O94921); settings: Compound concentration 1000.0 nM
[24] = target: Phosphatidylinositol 4,5-bisphosphate 3-kinase catalytic subunit gamma isoform (Homo sapiens) (UniProt P48736); settings: Compound concentration 1000.0 nM
[25] = target: Serine/threonine-protein kinase SBK1 (Homo sapiens) (UniProt Q52WX2); settings: Compound concentration 1000.0 nM
Serine/threonine-protein kinase SBK1 (Homo sapiens), sequence (Q52WX2 whole entry): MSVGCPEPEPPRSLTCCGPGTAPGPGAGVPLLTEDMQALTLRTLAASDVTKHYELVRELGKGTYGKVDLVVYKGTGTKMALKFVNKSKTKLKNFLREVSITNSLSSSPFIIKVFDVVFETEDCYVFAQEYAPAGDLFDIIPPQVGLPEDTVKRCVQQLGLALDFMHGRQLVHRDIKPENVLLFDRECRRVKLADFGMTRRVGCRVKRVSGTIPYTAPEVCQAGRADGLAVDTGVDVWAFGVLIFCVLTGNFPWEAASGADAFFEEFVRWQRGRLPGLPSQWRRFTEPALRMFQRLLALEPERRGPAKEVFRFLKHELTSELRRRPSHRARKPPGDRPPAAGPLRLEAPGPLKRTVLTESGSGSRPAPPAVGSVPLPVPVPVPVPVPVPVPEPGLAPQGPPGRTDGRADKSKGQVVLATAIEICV

[26] = target: SRSF protein kinase 3 (Homo sapiens) (UniProt Q9UPE1); settings: Compound concentration 1000.0 nM
SRSF protein kinase 3 (Homo sapiens), sequence (Q9UPE1 whole entry): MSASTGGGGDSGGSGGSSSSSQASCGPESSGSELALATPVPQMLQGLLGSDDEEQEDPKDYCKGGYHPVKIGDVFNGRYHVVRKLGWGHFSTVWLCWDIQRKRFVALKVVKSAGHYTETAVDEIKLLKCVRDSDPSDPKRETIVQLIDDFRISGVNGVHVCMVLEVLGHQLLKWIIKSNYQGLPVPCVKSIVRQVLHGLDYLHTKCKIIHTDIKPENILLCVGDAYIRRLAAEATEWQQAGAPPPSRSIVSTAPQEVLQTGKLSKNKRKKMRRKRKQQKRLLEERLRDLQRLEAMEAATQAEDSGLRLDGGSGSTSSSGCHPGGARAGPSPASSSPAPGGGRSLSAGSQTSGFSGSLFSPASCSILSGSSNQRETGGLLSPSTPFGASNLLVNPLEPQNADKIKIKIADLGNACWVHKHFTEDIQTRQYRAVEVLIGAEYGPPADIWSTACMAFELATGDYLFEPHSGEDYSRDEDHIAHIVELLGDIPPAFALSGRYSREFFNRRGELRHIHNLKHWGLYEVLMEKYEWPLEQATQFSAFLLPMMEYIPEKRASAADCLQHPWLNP

[27] = target: 5-hydroxytryptamine receptor 2B (Homo sapiens) (UniProt P41595); settings: Compound concentration 10.0 uM
[28] = target: T1, 5-hydroxytryptamine receptor 3A (Homo sapiens) (UniProt P46098); settings: Compound concentration 10.0 uM
T1 sequence (whole entry): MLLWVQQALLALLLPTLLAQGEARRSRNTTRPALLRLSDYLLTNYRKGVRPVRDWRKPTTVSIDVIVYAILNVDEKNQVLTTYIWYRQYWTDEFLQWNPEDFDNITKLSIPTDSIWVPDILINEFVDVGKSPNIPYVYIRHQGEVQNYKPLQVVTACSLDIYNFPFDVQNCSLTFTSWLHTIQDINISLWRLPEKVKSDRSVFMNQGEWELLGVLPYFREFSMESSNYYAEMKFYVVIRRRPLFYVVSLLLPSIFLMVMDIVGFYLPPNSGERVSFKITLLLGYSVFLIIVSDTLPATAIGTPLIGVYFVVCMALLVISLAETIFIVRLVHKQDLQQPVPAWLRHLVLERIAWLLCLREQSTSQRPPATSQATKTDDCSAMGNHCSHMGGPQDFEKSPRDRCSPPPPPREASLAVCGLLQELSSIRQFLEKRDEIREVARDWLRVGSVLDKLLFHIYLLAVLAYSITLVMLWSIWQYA

[29] = target: D(3) dopamine receptor (Homo sapiens) (UniProt P35462); settings: Compound concentration 10.0 uM
[30] = target: GABA-A receptor; anion channel (Rattus norvegicus) (UniProt O09028+P15431+P18506+P18508+P19969+P20236+P23574+P23576+P28471+P28473+P30191+P62813+P63079+P63138+Q91ZM7+Q9ES14); settings: Compound concentration 10.0 uM
[31] = target: T2, Alpha-1B adrenergic receptor (Homo sapiens) (UniProt P35368); settings: Compound concentration 10.0 uM
T2 sequence (whole entry): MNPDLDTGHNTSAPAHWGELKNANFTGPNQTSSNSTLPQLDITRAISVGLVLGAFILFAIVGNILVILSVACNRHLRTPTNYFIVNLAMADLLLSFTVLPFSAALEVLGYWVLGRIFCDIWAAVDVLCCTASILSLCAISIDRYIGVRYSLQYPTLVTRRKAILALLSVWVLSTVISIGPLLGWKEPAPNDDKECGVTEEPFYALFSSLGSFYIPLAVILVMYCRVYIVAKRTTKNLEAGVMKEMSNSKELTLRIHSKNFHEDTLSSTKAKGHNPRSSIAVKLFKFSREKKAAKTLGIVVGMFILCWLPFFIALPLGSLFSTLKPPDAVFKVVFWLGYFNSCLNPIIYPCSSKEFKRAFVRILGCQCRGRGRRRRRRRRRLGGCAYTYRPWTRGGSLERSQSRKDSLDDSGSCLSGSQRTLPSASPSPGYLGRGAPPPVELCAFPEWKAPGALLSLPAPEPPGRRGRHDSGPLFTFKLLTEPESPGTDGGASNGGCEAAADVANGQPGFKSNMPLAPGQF

Adenosine receptor A2b (Homo sapiens), sequence (P29275 whole entry): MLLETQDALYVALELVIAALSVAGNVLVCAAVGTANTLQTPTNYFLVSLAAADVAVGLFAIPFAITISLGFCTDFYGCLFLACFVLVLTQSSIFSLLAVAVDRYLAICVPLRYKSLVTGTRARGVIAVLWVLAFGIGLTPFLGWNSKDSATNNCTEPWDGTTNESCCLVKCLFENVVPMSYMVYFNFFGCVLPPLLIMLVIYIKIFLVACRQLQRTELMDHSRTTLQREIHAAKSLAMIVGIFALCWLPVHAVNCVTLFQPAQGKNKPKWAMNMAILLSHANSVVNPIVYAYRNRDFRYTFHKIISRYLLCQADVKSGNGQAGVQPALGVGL

| SMILES | % Inhibition of Control Specific Binding (Mean n=2) [1] [%] | % Inhibition of Control Specific Binding (Mean n=2) [2] [%] | % Inhibition of Control Specific Binding (Mean n=2) [3] [%] | residual activity [4] [%] | residual activity [5] [%] | residual activity [6] [%] | residual activity [7] [%] | residual activity [8] [%] | residual activity [9] [%] | residual activity [10] [%] | residual activity [11] [%] | residual activity [12] [%] | residual activity [13] [%] | residual activity [14] [%] | residual activity [15] [%] | residual activity [16] [%] | residual activity [17] [%] | residual activity [18] [%] | residual activity [19] [%] | residual activity [20] [%] | also measured |
| --- | --- | --- | --- | --- | --- | --- | --- | --- | --- | --- | --- | --- | --- | --- | --- | --- | --- | --- | --- | --- | --- |
| COc1ccc2c(c1)O[C@@H](c1ccc(OC)c(OC)c1)C[C@H]2NC(=O)C1(c2ccc3c(c2)OC(F)(F)O3)CC1 [A-1596586] | 3.7 | -20.6 | 29.3 | 100 | 100 | 95 | 82 | 100 | 100 | 78 | 75 | 96 | 97 | 95 | 100 | 100 | 82 | 100 | 65 | 94 | residual activity [21]: 96%; residual activity [22]: 88%; residual activity [23]: 93%; residual activity [24]: 74%; residual activity [25]: 94%; residual activity [26]: 100%; inhibition [27]: 1.62%; inhibition [28]: -1.13%; inhibition [29]: -1.53%; inhibition [30]: 2.64%; inhibition [31]: 49% |
| COc1ccc2c(c1)O[C@H](c1ccc(OC)c(OC)c1)C[C@@H]2NC(=O)C1(c2ccc3c(c2)OC(F)(F)O3)CC1 [A-1596584] | 3.6 | -28 | 15.7 | 92 | 100 | 100 | 83 | 100 | 100 | 82 | 100 | 92 | 100 | 94 | 99 | 100 | 100 | 79 | 78 | 100 | residual activity [21]: 92%; residual activity [22]: 100%; residual activity [23]: 98%; residual activity [24]: 74%; residual activity [25]: 90%; residual activity [26]: 97%; inhibition [27]: -0.83%; inhibition [28]: -3.53%; inhibition [29]: -9.23%; inhibition [30]: 11.1%; inhibition [31]: 5.97% |
